{"source": "paper PMC9388906", "about": "“Dual inhibition of the Echinococcus multilocularis energy metabolism” (Frontiers in Veterinary Science, 2022)", "key": {"[1]": {"system": "Reuber rat hepatoma (Rh) cells", "test": "Mammalian cell toxicity, Alamar Blue assay", "format": "cell-based", "details": "Alamar blue, 5 days, range tested 30–0.23 μM, mean (SD) of two tests", "protocol": "Compounds were added in a serial dilution (30–0.23 μM, 1:2 dilution steps) and in triplicates. Plates were incubated at 37°C, 5% CO2 and humid atmosphere for 5 days. Resazurin was added to a final concentration of 10 mg/L to each well, and fluorescence measured at 530 nm on an Enspire multilabel plate reader over 3 h. By using Microsoft Office Excel 2010 and a logit-log transformation of the relative growth, IC50 values were calculated. The test was performed twice for each compound, and respective averages and standard deviations are given."}, "[2]": {"system": "E. multilocularis metacestodes", "test": "Transmission electron microscopy of treated metacestodes", "format": "cell-based, Echinococcus multilocularis", "details": "5 days", "protocol": "E. multilocularis metacestodes treated with ELQ-400 (0.2, 1 and 2 μM, 5 days of incubation) under normoxic (37°C, 21% O2, 5% CO2, humid atmosphere) and anaerobic conditions (37°C, 80% N2, 10% CO2, and 10% H2, humid atmosphere) were processed for TEM as previously described ([17]). Metacestodes were washed in 100 mM sodium cacodylate buffer (pH 7.3), and were fixed in 2% glutaraldehyde in cacodylate buffer overnight at 4°C. Following several washes in cacodylate buffer, metacestodes were post-fixed in 2% osmium tetroxide in cacodylate buffer for 3–4 h, washed in water, and samples were treated with Uranyless™ solution (EMS, Hatfield, PA, USA) for 20 min, followed by several washes in distilled water. Specimens were dehydrated in a graded series of ethanol and were embedded in EPON-812 epoxy resin. Polymerization of the resin was carried out at 60°C for 24 h. Ultrathin sections were cut on a Reichert and Jung (Vienna) microtome, and were allowed to settle onto 400 mesh formvar carbon coated grids (Plano GmbH, Wetzlar, Germany). Specimens were contrasted with Uranyless and lead citrate, and were viewed on a FEI Morgagni Transmission Electron Microscope operating at 80 kV."}, "[3]": {"system": "mitochondrial bc1 complex of E. multilocularis GL cells", "test": "Seahorse oxygen consumption rate assay", "format": "cell-based, Echinococcus multilocularis", "details": "1 μM; succinate as initial electron donor; restored by ascorbate/TMPD, not by succinate or glycerol 3-phosphate", "protocol": "To measure effects of ELQ-400 on the oxygen consumption rate (OCR), Seahorse assay was conducted according to the method established by Rufener et al. ([17]) and according to the manual for Seahorse XFp Extracellular Flux Analyzer (Agilent Technologies, Bucher Biotec, Basel, Switzerland). E. multilocularis GL cells were isolated and prepared the day before. Cells were centrifuged and resuspended in Mitochondrial Assay Solution (MAS) solution (220 mM mannitol, 70 mM sucrose, 10 mM KH2PO4, 5 mM MgCl2, 2 mM HEPES, and 1 mM EGTA pH 7.2). This cell suspension was centrifuged again and the pellet was resuspended in assay-buffer (MAS, 10 mM succinate, 2 μM rotenone, 4 mM ADP, and 3.6 nM PMP). 100 units of GL cells were distributed to each well of a Seahorse XFp miniplate (Agilent Technologies) pre-coated with CellTak according to the instruction manual (Fisher Scientific, Schwerte, Germany). Two wells were used as blanks with assay buffer without cells. ELQ-400 (1 μM) was diluted in MAS solution and loaded to the delivery ports of the sensor cartridge of the first injection (or DMSO as a control). In the second injection, succinate (10 mM), glycerol 3-phosphate (10 mM), or ascorbate (20 mM) with TMPD (0.6 mM) was added. […] Each drug setup was tested in triplicates and the read-out and analysis was done using the software Wave (Agilent Technologies, Bucher Biotec, Basel, Switzerland). […]"}}, "note": "Read-outs that look alike come from different tables or passages of the source."}
{"smiles": "Cc1[nH]c2cc(F)cc(F)c2c(=O)c1-c1ccc(Oc2ccc(OC(F)(F)F)cc2)cc1", "note": "[ELQ-400]", "values": [{"measurement": "IC50", "setting": "[1]; confluent Rh cells, read-out: IC50 Rh confluent", "value": "> 30000", "unit": "nM"}, {"measurement": "IC50", "setting": "[1]; preconfluent Rh cells, read-out: IC50 Rh preconfluent", "value": 1460, "unit": "nM"}, {"measurement": "Ultrastructural effects on metacestodes (TEM)", "setting": "[2]; 0.2 μM, normoxic (21% O2)", "value": "did not show obvious ultrastructural alterations"}, {"measurement": "Ultrastructural effects on metacestodes (TEM): overall structural organization, especially of the GL", "setting": "[2]; 1 μM, normoxic (21% O2)", "value": "partially compromised"}, {"measurement": "Ultrastructural effects on metacestodes (TEM)", "setting": "[2]; 2 μM, normoxic (21% O2)", "value": "partial separation of the GL and the LL"}, {"measurement": "Ultrastructural effects on metacestodes (TEM)", "setting": "[2]; anaerobic conditions, compared with damage at 1 and 2 μM under normoxic conditions", "value": "did not exhibit such alterations"}, {"measurement": "Oxygen consumption rate (OCR) of GL cells", "setting": "[3]", "value": "immediate reduction of the OCR"}]}
